The values below come from PubChem BioAssay (NCI).

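Each compound was tested at five concentrations against cells in 96-well plates for 48 hours. GI50: concentration for 50% inhibition of growth. TGI denotes the concentration required for complete inhibition of growth.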 Where a SMILES comes first, the peptide text is derived from it. The star is where a group is joined. X36 = O=C(c1ccc(-c2ccc(Cl)cc2Cl)o1)*

The test system of one test is U251 CNS. Nature of the test: DTP human tumour cell line panel, 48 h.
`CCOC(=O)/C=C(\C(=O)OCC)n1cc(C)c(=O)n(Cc2cnnn2CCCCOC(C)=O)c1=O` came in with a TGI of 49.2 µM. This lies in the double-digit micromolar range.

Turning to `Cc1ccc2c(=O)cc(-c3cccs3)[nH]c2n1`, the TGI is > 100 µM.

On to `O=c1oc2ccccc2c(Nc2ccc3c(c2)Oc2ccccc2O3)c1[N+](=O)[O-]`, for which the TGI worked out at 30 µM.

`CCC(C)C(NC(=O)CNC(=O)C(Cc1ccccc1)NC(=O)C1CCCN1C(=O)c1ccc(-c2ccc(Cl)cc2Cl)o1)C(=O)OC` (centres undefined) (X36-PFGI-OMe; configuration not given here) registered a TGI of 93.5 µM.

The subject of another test is KM12 colon. Nature of the test: DTP human tumour cell line panel, 48 h.
Turning to `CCOC(=O)/C=C(\C(=O)OCC)n1cc(C)c(=O)n(Cc2cnnn2CCCCOC(C)=O)c1=O`, the TGI was 34.4 µM. This counts as double-digit micromolar.

For `Cc1ccc2c(=O)cc(-c3cccs3)[nH]c2n1`, the TGI was > 100 µM.

Consider `O=c1oc2ccccc2c(Nc2ccc3c(c2)Oc2ccccc2O3)c1[N+](=O)[O-]`, for which the TGI was > 100 µM.

With `CCC(C)C(NC(=O)CNC(=O)C(Cc1ccccc1)NC(=O)C1CCCN1C(=O)c1ccc(-c2ccc(Cl)cc2Cl)o1)C(=O)OC` (centres undefined) (X36-PFGI-OMe; configuration not given here), the total growth inhibition concentration (TGI) was > 100 µM.

Another test deals with PC-3 prostate. Nature of the test: DTP human tumour cell line panel, 48 h.
Turning to `CCOC(=O)/C=C(\C(=O)OCC)n1cc(C)c(=O)n(Cc2cnnn2CCCCOC(C)=O)c1=O`, the TGI is > 71.3 µM.

As to `Cc1ccc2c(=O)cc(-c3cccs3)[nH]c2n1`, the TGI is > 95.8 µM.

Compound `O=c1oc2ccccc2c(Nc2ccc3c(c2)Oc2ccccc2O3)c1[N+](=O)[O-]` came in with a TGI of 32.5 µM. This lies in the double-digit micromolar range.

With `CCC(C)C(NC(=O)CNC(=O)C(Cc1ccccc1)NC(=O)C1CCCN1C(=O)c1ccc(-c2ccc(Cl)cc2Cl)o1)C(=O)OC` (centres undefined) (X36-PFGI-OMe; configuration not given here), the TGI stood at 49.1 µM.

The next test deals with A549 NSCLC. Put plainly: DTP human tumour cell line panel, 48 h.
Compound `CCOC(=O)/C=C(\C(=O)OCC)n1cc(C)c(=O)n(Cc2cnnn2CCCCOC(C)=O)c1=O` showed a TGI of 60.7 µM.

In the case of `Cc1ccc2c(=O)cc(-c3cccs3)[nH]c2n1`, the TGI is > 100 µM.

For `O=c1oc2ccccc2c(Nc2ccc3c(c2)Oc2ccccc2O3)c1[N+](=O)[O-]`, the total growth inhibition concentration (TGI) was > 100 µM.

Turning to `CCC(C)C(NC(=O)CNC(=O)C(Cc1ccccc1)NC(=O)C1CCCN1C(=O)c1ccc(-c2ccc(Cl)cc2Cl)o1)C(=O)OC` (centres undefined) (X36-PFGI-OMe; configuration not given here), the TGI is > 100 µM.

For the next test, the system named is HT29 colon. Nature of the test: DTP human tumour cell line panel, 48 h.
For the compound `CCOC(=O)/C=C(\C(=O)OCC)n1cc(C)c(=O)n(Cc2cnnn2CCCCOC(C)=O)c1=O`, the TGI was 21.3 µM.

With `Cc1ccc2c(=O)cc(-c3cccs3)[nH]c2n1`, the TGI is > 70.9 µM.

For `O=c1oc2ccccc2c(Nc2ccc3c(c2)Oc2ccccc2O3)c1[N+](=O)[O-]`, the TGI is > 100 µM.

As for `CCC(C)C(NC(=O)CNC(=O)C(Cc1ccccc1)NC(=O)C1CCCN1C(=O)c1ccc(-c2ccc(Cl)cc2Cl)o1)C(=O)OC` (centres undefined) (X36-PFGI-OMe; configuration not given here), the total growth inhibition concentration (TGI) is > 100 µM.

The next test deals with LOX IMVI melanoma. Put plainly: DTP human tumour cell line panel, 48 h.
In turn, `CCOC(=O)/C=C(\C(=O)OCC)n1cc(C)c(=O)n(Cc2cnnn2CCCCOC(C)=O)c1=O` registered a TGI of 18.9 µM.

Regarding `Cc1ccc2c(=O)cc(-c3cccs3)[nH]c2n1`, the TGI was > 100 µM.

For `O=c1oc2ccccc2c(Nc2ccc3c(c2)Oc2ccccc2O3)c1[N+](=O)[O-]`, the TGI was > 100 µM.

`CCC(C)C(NC(=O)CNC(=O)C(Cc1ccccc1)NC(=O)C1CCCN1C(=O)c1ccc(-c2ccc(Cl)cc2Cl)o1)C(=O)OC` (centres undefined) (X36-PFGI-OMe; configuration not given here): the total growth inhibition concentration (TGI) was > 100 µM.

For a further test, the system named is MOLT-4 leukemia. Nature of the test: DTP human tumour cell line panel, 48 h.
Turning to `CCOC(=O)/C=C(\C(=O)OCC)n1cc(C)c(=O)n(Cc2cnnn2CCCCOC(C)=O)c1=O`, the TGI is > 25.6 µM.

As to `Cc1ccc2c(=O)cc(-c3cccs3)[nH]c2n1`, the TGI was > 100 µM.

Turning to `O=c1oc2ccccc2c(Nc2ccc3c(c2)Oc2ccccc2O3)c1[N+](=O)[O-]`, the TGI was > 100 µM.

In the case of `CCC(C)C(NC(=O)CNC(=O)C(Cc1ccccc1)NC(=O)C1CCCN1C(=O)c1ccc(-c2ccc(Cl)cc2Cl)o1)C(=O)OC` (centres undefined) (X36-PFGI-OMe; configuration not given here), the TGI was > 100 µM.

A further test deals with DU-145 prostate. Put plainly: DTP human tumour cell line panel, 48 h.
For `CCOC(=O)/C=C(\C(=O)OCC)n1cc(C)c(=O)n(Cc2cnnn2CCCCOC(C)=O)c1=O`, the concentration for total growth inhibition (TGI) was > 55.8 µM.

On to `Cc1ccc2c(=O)cc(-c3cccs3)[nH]c2n1`, for which the TGI was > 100 µM.

For the compound `O=c1oc2ccccc2c(Nc2ccc3c(c2)Oc2ccccc2O3)c1[N+](=O)[O-]`, the TGI is 90.1 µM. This counts as double-digit micromolar.

Take `CCC(C)C(NC(=O)CNC(=O)C(Cc1ccccc1)NC(=O)C1CCCN1C(=O)c1ccc(-c2ccc(Cl)cc2Cl)o1)C(=O)OC` (centres undefined) (X36-PFGI-OMe; configuration not given here): the TGI was > 100 µM.

For another test, the system named is HOP-62 NSCLC. Put plainly: DTP human tumour cell line panel, 48 h.
Regarding `CCOC(=O)/C=C(\C(=O)OCC)n1cc(C)c(=O)n(Cc2cnnn2CCCCOC(C)=O)c1=O`, the TGI is > 68.1 µM.

Turning to `Cc1ccc2c(=O)cc(-c3cccs3)[nH]c2n1`, the TGI is > 100 µM.

`O=c1oc2ccccc2c(Nc2ccc3c(c2)Oc2ccccc2O3)c1[N+](=O)[O-]`: the concentration for total growth inhibition (TGI) is > 100 µM.

For `CCC(C)C(NC(=O)CNC(=O)C(Cc1ccccc1)NC(=O)C1CCCN1C(=O)c1ccc(-c2ccc(Cl)cc2Cl)o1)C(=O)OC` (centres undefined) (X36-PFGI-OMe; configuration not given here), the TGI was > 100 µM.

A further test relates to SNB-75 CNS. Nature of the test: DTP human tumour cell line panel, 48 h.
Turning to `CCOC(=O)/C=C(\C(=O)OCC)n1cc(C)c(=O)n(Cc2cnnn2CCCCOC(C)=O)c1=O`, the TGI was 38.3 µM.

The compound `Cc1ccc2c(=O)cc(-c3cccs3)[nH]c2n1` showed a total growth inhibition concentration (TGI) of 63.3 µM.

In the case of `O=c1oc2ccccc2c(Nc2ccc3c(c2)Oc2ccccc2O3)c1[N+](=O)[O-]`, the TGI is 30.2 µM. This TGI lies about 2.1-fold lower than the previous one.

`CCC(C)C(NC(=O)CNC(=O)C(Cc1ccccc1)NC(=O)C1CCCN1C(=O)c1ccc(-c2ccc(Cl)cc2Cl)o1)C(=O)OC` (centres undefined) (X36-PFGI-OMe; configuration not given here) had a total growth inhibition concentration (TGI) of 69.4 µM.

For the next test, the system named is CCRF-CEM leukemia. Put plainly: DTP human tumour cell line panel, 48 h.
Take `CCOC(=O)/C=C(\C(=O)OCC)n1cc(C)c(=O)n(Cc2cnnn2CCCCOC(C)=O)c1=O`: the GI50 was 1.32 µM and the TGI is 4.71 µM.

Consider `Cc1ccc2c(=O)cc(-c3cccs3)[nH]c2n1`, for which the TGI is > 87.6 µM.

With `O=c1oc2ccccc2c(Nc2ccc3c(c2)Oc2ccccc2O3)c1[N+](=O)[O-]`, the concentration for total growth inhibition (TGI) was > 100 µM.

With `CCC(C)C(NC(=O)CNC(=O)C(Cc1ccccc1)NC(=O)C1CCCN1C(=O)c1ccc(-c2ccc(Cl)cc2Cl)o1)C(=O)OC` (centres undefined) (X36-PFGI-OMe; configuration not given here), the total growth inhibition concentration (TGI) was > 100 µM.

The test system of a further test is SNB-19 CNS. Put plainly: DTP human tumour cell line panel, 48 h.
For the compound `CCOC(=O)/C=C(\C(=O)OCC)n1cc(C)c(=O)n(Cc2cnnn2CCCCOC(C)=O)c1=O`, the TGI was > 66.5 µM.

Regarding `Cc1ccc2c(=O)cc(-c3cccs3)[nH]c2n1`, the TGI amounted to 82.2 µM. This lies in the double-digit micromolar range.

Compound `O=c1oc2ccccc2c(Nc2ccc3c(c2)Oc2ccccc2O3)c1[N+](=O)[O-]` yielded a TGI of 40.4 µM.

For the compound `CCC(C)C(NC(=O)CNC(=O)C(Cc1ccccc1)NC(=O)C1CCCN1C(=O)c1ccc(-c2ccc(Cl)cc2Cl)o1)C(=O)OC` (centres undefined) (X36-PFGI-OMe; configuration not given here), the TGI was > 100 µM.

The test system of another test is SK-MEL-28 melanoma. Put plainly: DTP human tumour cell line panel, 48 h.
`CCOC(=O)/C=C(\C(=O)OCC)n1cc(C)c(=O)n(Cc2cnnn2CCCCOC(C)=O)c1=O` yielded a TGI of 25.1 µM.

With `Cc1ccc2c(=O)cc(-c3cccs3)[nH]c2n1`, the TGI was > 100 µM.

On to `O=c1oc2ccccc2c(Nc2ccc3c(c2)Oc2ccccc2O3)c1[N+](=O)[O-]`, for which the TGI turned out to be 50 µM. This counts as double-digit micromolar.

As to `CCC(C)C(NC(=O)CNC(=O)C(Cc1ccccc1)NC(=O)C1CCCN1C(=O)c1ccc(-c2ccc(Cl)cc2Cl)o1)C(=O)OC` (centres undefined) (X36-PFGI-OMe; configuration not given here), the TGI is > 100 µM.

The subject of the next test is UO-31 renal. Nature of the test: DTP human tumour cell line panel, 48 h.
As to `CCOC(=O)/C=C(\C(=O)OCC)n1cc(C)c(=O)n(Cc2cnnn2CCCCOC(C)=O)c1=O`, the TGI was found to be 30 µM. That is a double-digit micromolar value.

`Cc1ccc2c(=O)cc(-c3cccs3)[nH]c2n1` returned a TGI of 35.6 µM.

Take `O=c1oc2ccccc2c(Nc2ccc3c(c2)Oc2ccccc2O3)c1[N+](=O)[O-]`: the TGI is > 100 µM.

Take `CCC(C)C(NC(=O)CNC(=O)C(Cc1ccccc1)NC(=O)C1CCCN1C(=O)c1ccc(-c2ccc(Cl)cc2Cl)o1)C(=O)OC` (centres undefined) (X36-PFGI-OMe; configuration not given here): the TGI is > 100 µM.

The next test has as its system TK-10 renal. Nature of the test: DTP human tumour cell line panel, 48 h.
Regarding `CCOC(=O)/C=C(\C(=O)OCC)n1cc(C)c(=O)n(Cc2cnnn2CCCCOC(C)=O)c1=O`, the TGI came out at 13.7 µM.

Regarding `Cc1ccc2c(=O)cc(-c3cccs3)[nH]c2n1`, the TGI was > 100 µM.
